SMILES strings stand for the structures.

In general, pKa refers to the negative logarithm of the acid dissociation constant. Lower therefore signals a group that gives up its proton readily.

`CC1(C)SC(=S)NC1=O` yielded a pKa (acidic group) of 5.38.

Regarding `N#CC(CC(=O)O)c1ccccc1` (stereo not drawn), under “acidic group”, the pKa turned out to be 3.79. Consider `C[n+]1ccccc1N`, for which the pKa (acidic group) is 12.2. Turning to `CC[NH+](CC)CCC(C)Nc1c2ccc(Cl)cc2nc2ccc(OC)cc12` (stereo not drawn), the pKa (basic group) was found to be 7.2. `C[C@H]([NH3+])C(=O)O` displayed a pKa (acidic group) of 2.42. As to `COc1cccc(NS(=O)(=O)c2ccccc2)c1`, where the note is “acidic group”, the pKa was found to be 7.95. Take `CNc1cc[n+](O)cc1`: the pKa (acidic group) was determined as 3.85. Where the note is “basic group”, `COc1ccccc1/N=C/N(C)C` had a pKa of 8.11. In the case of `C[N+](C)(C)c1cc([N+](=O)[O-])ccc1O`, the pKa (acidic group) was found to be 4.35. With `NCCCCc1cccnc1`, the pKa (basic group) turned out to be 10.2.

In turn, `c1ccc(-c2ccco2)nc1` displayed a pKa (basic group) of 4.18. On the same count and under the same terms, as for `c1coc(CNCCNCc2ccco2)c1`, the figure is 8.61. On to `Nc1nc[nH+]c(O)c1N`, for which the pKa reads like this: (acidic group) 3.57; (basic group) 1.34.

As for `CC(=O)c1ccc(O)c([N+](=O)[O-])c1`, the pKa (acidic group) came out at 5.09.

`CCCCOc1ccc(O)cc1` came in with a pKa (acidic group) of 10.2. Consider `CC(C)(S)[C@@H](C(=O)[O-])n1ccnc1Cc1ccccc1`, for which the pKa (acidic group) was determined as 10.3 and the pKa (basic group) worked out at 6.98. For the compound `C=CCc1ccc2cccnc2c1O`, the pKa by setting is: (acidic group) 10.1; (basic group) 4.52.

The compound `COc1cccc(CCC(=O)O)c1` registered a pKa (acidic group) of 4.65. For `c1ccc(CNC23OC4C5C6CC(C7C6C4C72)C53)cc1` (stereo not drawn), under “basic group”, the pKa was determined as 7.07. `CCc1nc2cc3ccccc3cc2[nH]1`: the pKa is, setting by setting: (acidic group) 12.9; (basic group) 6.14. Where the note is “basic group”, `COc1ccc(I)cc1C(=O)N[C@@H]1C[C@H]2CC[C@@H](C1)N2Cc1ccccc1` yielded a pKa of 8.79. Consider `CC(C)CCP(=O)(O)CCC(C)C`, for which the pKa (acidic group) turned out to be 3.26.

`C[NH+](C)CCc1cccc(O)c1` yielded a pKa (acidic group) of 9.24. In the case of `NC(=S)C([NH3+])Cc1ccccc1` (stereo not drawn), the pKa (basic group) is -8.63. For the compound `O=C1NC(=S)NC12CCCCC2`, where the note is “acidic group”, the pKa turned out to be 8.79. In the case of `Nc1nc(N(CCO)CCO)nc(N(CCO)CCO)n1`, where the note is “basic group”, the pKa turned out to be 5.15.

Turning to `CCCCCCCCCCN(CC(O)CC)CC(O)CC` (stereo not drawn), the pKa (basic group) came to 6.6. As to `C[N+](C)(C)Cc1ccccc1O`, for the setting “acidic group”, the pKa is 8.71.

For the setting “acidic group”, `CC(C)(C)c1cc(/C=C/C(=O)[O-])cc(C(C)(C)C)c1O` displayed a pKa of 11.1. Take `COc1ccc(-c2ncc(-c3ccccc3)o2)cc1`: under “basic group”, the pKa stood at 1.25.

In turn, `Cc1c(Cn2cc[nH+]c2)sc2cc(C(=O)O)ccc12` had a pKa (acidic group) of 3.59. Take `Oc1cc(Cl)cc(Cl)c1`: where the note is “acidic group”, the pKa was determined as 8.07. `O=C1CCCC(=O)N1` returned a pKa (acidic group) of 11.4. Turning to `Cc1cc(-c2ccccn2)nn1C`, the pKa (basic group) stood at 4.52. Same read-out and setting: the figure for `Cc1cnc2ccccc2n1` is 0.95. For the setting “acidic group”, `CC[NH2+]C(C)C(=O)O` (stereo not drawn) had a pKa of 2.22. The same measure, in the same setting: as for `S=C(/N=N/c1ccc2ccccc2c1)NNc1ccc2ccccc2c1`, the figure is 12.7; as for `C=CC(O)OCC(C)O` (stereo not drawn), 5.5. Compound `Cc1ccc2nc3ccc(N)cc3nc2c1` had a pKa (basic group) of 4.8. `CN(C)c1nnn[nH]1` had a pKa (acidic group) of 5.92. Where the note is “acidic group”, `COCC1=C(C(=O)O)CCC1` showed a pKa of 4.5. As to `C1CNCCNCCN1`, the pKa (basic group) was 10.6. On the same count and under the same terms, as for `C1OC1CN(CC1CO1)CC1CO1` (stereo not drawn), the figure is 5.01; as for `Nc1ccccc1C(=O)[O-]`, 4.87; as for `Cc1cc2c(cc1N)Sc1cc([NH+](C)C)ccc1N2`, 4.81. Regarding `C[NH+](C)CC[SeH]`, the pKa (acidic group) is 4.74. Under “basic group”, `CC(N)CC#N` (stereo not drawn) yielded a pKa of 7.85.

In turn, `CCN(C)N` displayed a pKa (basic group) of 7.3.

As to `O=c1cc(-c2cccc(O)c2)oc2ccccc12`, the pKa (acidic group) is 9.75.

In turn, `COc1cc2c(cc1OC)[C@]13CCN4CC5=CCO[C@H]6CC(=O)N2[C@H]1C6[C@@]5(S(=O)(=O)[O-])C[C@H]43` (stereo partly drawn) came in with a pKa (basic group) of 7.45.

Under “basic group”, `CN1C=C(C#N)C=CC1` gave a pKa of 2.7. The same measure, in the same setting: the figure for `CC1=C(CC(C)NCC(O)c2ccc(C)cc2)CCC1(C)C` (stereo not drawn) is 8.71. In turn, `Brc1ccc([P+](c2ccccc2)(c2ccccc2)C2c3ccccc3-c3ccccc32)cc1` came in with a pKa (acidic group) of 8.67. On the same count and under the same terms, the figure for `O=C(O)c1cc([N+](=O)[O-])cs1` is 2.83. `Cn1cccnc1=N` gave a pKa (basic group) of 10.8. For the setting “acidic group”, `Cc1csc(-c2cccc(NS(=O)(=O)c3ccc(N)cc3)c2)n1` yielded a pKa of 9.2. As for `Cc1cccc(C)c1NN=C(C#N)C#N`, the pKa runs as follows: (acidic group) 6.6; (basic group) -0.82.

As to `CCCCCCN(CC(O)CC)CC(O)CC` (stereo not drawn), the pKa (basic group) was 8.6.

As to `CCC(O)CN(C)CC(C)O` (stereo not drawn), the pKa (basic group) came to 8.9. `CC(C)(C(=O)[O-])c1c[nH]c(CO)n1` displayed a pKa (basic group) of 7.38. Still for that read-out and setting: as for `c1cc(N2CCOCC2)c2c(N3CCOCC3)cccc2c1`, the figure is 7.49. Same read-out and setting: as for `C[Se](C)=O`, the figure is 2.55.

On to `Oc1ccc2nc3ccccc3cc2c1`, for which the pKa came out at 8.81 (acidic group) and 5.52 (basic group).

Consider `COc1ccc(N)cc1C[NH3+]`, for which the pKa (basic group) is 5.24. As for `Oc1nc2nc[nH]c2c(O)[nH+]1`, the pKa (acidic group) was determined as 1.2.

As for `CCN(CC)CCOC(=O)c1ccc2ccccc2c1`, the pKa (basic group) was determined as 7.52. On the same count and under the same terms, the figure for `Cc1cscn1` is 3.14. As to `CCOC(=O)Nc1nnc(-c2ccccc2)s1`, where the note is “acidic group”, the pKa came to 8.2. The compound `CSc1cnc2ccccc2c1` showed a pKa (basic group) of 3.88.

For the compound `OCc1c[nH]cn1`, the pKa (basic group) was determined as 6.38.

In turn, `CC(C)(N)C(N)=S` came in with a pKa (basic group) of 7.61.

Compound `CC(C)(C)N` yielded a pKa (basic group) of 10.7. As to `Oc1cnc2ccccc2c1`, the pKa by setting is: (acidic group) 8.06; (basic group) 4.3. Under “acidic group”, `Cc1cccc(CCCCCCCC(=O)O)[nH+]1` gave a pKa of 4.6.

With `CCCCCCCCN(CCO)CC(O)CC` (stereo not drawn), under “basic group”, the pKa is 8.3. Regarding `O=C(/C=N/O)NCCN1CCOCC1`, the pKa (basic group) was determined as 6.19.

Turning to `CN(C)CCSCC[NH+](C)C`, where the note is “basic group”, the pKa worked out at 8. As for `CC(C)(/C=C/C(=O)[O-])c1ccccc1O`, the pKa (acidic group) turned out to be 10.7. Where the note is “basic group”, `C[NH+](C)CCCCN1C=Nc2cccc3cccc1c23` had a pKa of 5.3.

`CCSC(O)O` yielded a pKa (acidic group) of 11.5. As for `CN(C)C(C)(C)C`, the pKa (basic group) is 10.5. As to `O=[N+]([O-])c1ccc[nH]1`, for the setting “acidic group”, the pKa stood at 10.6. For `OCCCCCc1cccnc1`, under “basic group”, the pKa worked out at 5.72. The compound `CCC[NH2+]CC(=O)O` yielded a pKa (acidic group) of 2.31.

`Cc1ccc(O)cc1Cc1cc([N+](=O)[O-])ccc1[O-]` returned a pKa (acidic group) of 10.3.

`CCc1cnc2c(ccc3cccnc32)c1`: the pKa (basic group) is 4.98.

`CSc1cccc(N)c1`: the pKa (basic group) turned out to be 4.05.

For `CCOC(=O)CCCCCN`, the pKa (basic group) turned out to be 10.4.

Turning to `CC1(C)SC(=O)NC1=O`, the pKa (acidic group) turned out to be 6.64. The same measure, in the same setting: the figure for `NS(=O)(=O)c1ccc(P(=O)(O)O)cc1` is 1.42. Regarding `C#CC(C)(C(C)C)N(C)C(C)C` (stereo not drawn), the pKa (basic group) amounted to 8.7. For `C[C@H]([NH3+])C(=O)N[C@@H](Cc1c[nH]c[nH+]1)C(=O)O`, the pKa (acidic group) is 2.73.

Turning to `C1=CN2CCC1CC2`, where the note is “basic group”, the pKa was 9.82. On to `Cc1ccc(O)c2ncccc12`, for which the pKa reads like this: (acidic group) 9.93; (basic group) 5.29.

As to `O=P(O)(O)C([NH2+]Cc1ccc[nH+]c1)c1ccccc1O` (stereo not drawn), the pKa (acidic group) was 2.28. The compound `Cc1cccc(CCCCCCCC(=O)[O-])n1` showed a pKa (basic group) of 7. For the compound `O=C1CN(C(=O)c2ccccc2)C(=S)N1`, the pKa is 6.5 (acidic group) and -6.6 (basic group). For the setting “acidic group”, `O=C(O)[C@@H]1O[C@H](Oc2ccc3[nH+]ccc(O)c3c2)[C@@H](O)[C@H](O)[C@H]1O` registered a pKa of 3.15. The same measure, in the same setting: as for `Nc1ccc(S(=O)(=O)Nc2ccn(-c3cccc([N+](=O)[O-])c3)n2)cc1`, the figure is 7.03; as for `COc1ccc(C)c(C(=O)O)c1`, 3.84. Consider `Nc1c(O)cccc1O`, for which the pKa is, setting by setting: (acidic group) 9.3; (basic group) 5.1. In turn, `[O-][n+]1ccc2ccccc2c1` gave a pKa (basic group) of 1.01.

Take `Cc1ccc(NN=C(C#N)C#N)cc1`: the pKa runs as follows: (acidic group) 6.75; (basic group) -0.83.

Compound `CC1CCCN(C(C)C=C(c2cccs2)c2cccs2)C1` (stereo not drawn) registered a pKa (basic group) of 8.28. Same read-out and setting: the figure for `CC(=O)n1ccnc1Cc1[nH]cc[nH+]1` is 1.93; for `Nc1ccc([NH3+])c(N)c1` it is 3.69. With `CCOC(=O)C(Cc1ccc(C)cc1)C(C)=O` (stereo not drawn), the pKa (acidic group) came to 11.9. On to `CNCCC#N`, for which the pKa (basic group) was 8.1. On to `O=[N+]([O-])c1cc(O)ccc1[O-]`, for which the pKa (acidic group) came to 10.1.

`CN1Cc2c(ccc3c2OCO3)-c2ccc3cc4c(cc3c21)OCO4` had a pKa (basic group) of 2.6. The same measure, in the same setting: as for `CNC(=O)/C=C(\c1ccc2nc(N)n(C(C)C)c2c1)c1cccc(F)c1F`, the figure is 6.69; as for `COc1ccc2c(c1)C([P+](c1ccccc1)(c1ccccc1)c1ccccc1)c1ccccc1-2` (stereo not drawn), 9.09. Regarding `O=C(O)c1ccc(=O)oc1`, the pKa (acidic group) was determined as 3.26.

`COc1ccc(Nc2ccc(N)cc2)cc1` yielded a pKa (basic group) of 5.9. As to `S=c1[nH]cnc2nn[nH]c12`, the pKa (acidic group) came out at 4.6. Take `CCc1c(-c2ccccc2)nn(C2CCN(C)CC2)c1[O-]`: the pKa (basic group) is 9.15. Same read-out and setting: the figure for `CCCCN(C)C` is 10. For `Oc1ccccc1C1CCNCCNCCCNCCN1` (stereo not drawn), under “acidic group”, the pKa was determined as 10.8. In the case of `N#CC(C#N)=NNc1ccc(Cl)cc1`, the pKa runs as follows: (acidic group) 6.15; (basic group) -0.79.

With `Cc1noc(-c2ccccc2)c1C(=O)O`, for the setting “basic group”, the pKa amounted to 1.7. Turning to `Nc1nc2c(ncn2[C@H]2O[C@@H](CO)[C@H](O)[C@@H]2O)c(O)[nH+]1`, the pKa (acidic group) is 1.9.

`Brc1ccc2c(c1)-c1ccccc1C2[P+](c1ccccc1)(c1ccccc1)c1ccccc1` (stereo not drawn) gave a pKa (acidic group) of 7.53. With `C1CCN2CCCCN2C1`, the pKa (basic group) worked out at 6.79. Compound `Cn1nc(/N=N/O)nc1N` gave a pKa (acidic group) of 5.36. For the compound `CCC(=O)C(C[C@H](C)N1CCOCC1)(c1ccccc1)c1ccccc1`, the pKa (basic group) is 6.73. Still for that read-out and setting: the figure for `Nc1ccc2[nH]c(Cc3ccccc3)[nH+]c2c1` is 3.3; for `COc1cccc2cccnc12` it is 4.88. `O=C(O)C1CCC[NH2+]1` (stereo not drawn) came in with a pKa (acidic group) of 1.99. For the setting “acidic group”, `CC(=O)C(C)C(C)(C)C(=O)O` (stereo not drawn) came in with a pKa of 5.79.

In turn, `C=CCN(CC=C)CC=C` gave a pKa (basic group) of 8.31.

Compound `CCCCCC(C)(C)N` came in with a pKa (basic group) of 10.8.
